Test results as given in patent publication US20140128385A1 (NOVARTIS AG, priority 2011, published 2014).
Structures can show the parent of a compound that is named as a salt.

Biological target: T1, BACE-2 (Homo sapiens, UniProt Q9Y5Z0)
T1 construct: Recombinant BACE-2 (extracellular domain, expressed in baculovirus and purified using standard methods); made in house
T1 sequence (Q9Y5Z0 63-473 limits assumed): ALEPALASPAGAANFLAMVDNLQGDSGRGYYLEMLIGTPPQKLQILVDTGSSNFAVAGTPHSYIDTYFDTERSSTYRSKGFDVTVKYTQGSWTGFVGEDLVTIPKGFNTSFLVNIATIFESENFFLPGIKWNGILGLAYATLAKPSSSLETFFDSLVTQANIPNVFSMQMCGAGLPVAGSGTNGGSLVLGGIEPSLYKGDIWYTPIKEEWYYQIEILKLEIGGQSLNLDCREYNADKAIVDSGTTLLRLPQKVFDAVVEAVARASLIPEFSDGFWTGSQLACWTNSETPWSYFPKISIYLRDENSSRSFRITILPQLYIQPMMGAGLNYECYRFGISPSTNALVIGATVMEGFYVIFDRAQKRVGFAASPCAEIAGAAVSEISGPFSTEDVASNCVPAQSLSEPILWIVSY
Assay: assay for inhibition of BACE-2
Assay type: biochemical

| Compound | IC50 [µM] |
| --- | --- |
| CC1(c2cc(NC(=O)c3ccc(Cl)cn3)ccc2F)N=C(N)COCC1(F)F (stereo not shown) [Example 100, N-(3-(3-amino-6,6-difluoro-5-methyl-2,5,6,7-tetrahydro-1,4-oxazepin-5-yl)-4-fluorophenyl)-5-chloropicolinamide] | 0.017 |
| CC1(c2cc(NC(=O)c3ccc(Br)cn3)ccc2F)N=C(N)COCC1(F)F (stereo not shown) [Example 101] | 0.026 |
| NC1=NC(c2cccc(NC(=O)c3cc(Br)co3)c2)(C(F)F)COC1 (stereo not shown) [Example 102] | 0.24 |
| NC1=NC(c2cccc(NC(=O)c3ccc(O)nn3)c2)(C(F)F)COC1 (stereo not shown) [Example 103] | > 10 |
| Cc1nc(C(=O)Nc2cccc(C3(C(F)F)COCC(N)=N3)c2)co1 (stereo not shown) [Example 104] | 0.309 |
| CCc1nc(C(=O)Nc2cccc(C3(C(F)F)COCC(N)=N3)c2)co1 (stereo not shown) [Example 105] | 1.02 |
| Cc1nc(C(=O)Nc2cccc(C3(C(F)F)COCC(N)=N3)c2)c(C)o1 (stereo not shown) [Example 106] | 1.04 |
| COc1cc(Br)cnc1C(=O)Nc1cccc(C2(C(F)F)COCC(N)=N2)c1 (stereo not shown) [Example 107] | 0.133 |
| NC1=NC(c2cccc(NC(=O)c3ncc(Br)cc3O)c2)(C(F)F)COC1 (stereo not shown) [Example 108] | 0.024 |
| COCCOc1cnc(C(=O)Nc2cccc(C3(C(F)F)COCC(N)=N3)c2)cn1 (stereo not shown) [Example 109] | > 10 |
| NC1=NC(c2cccc(NC(=O)c3cnc(C(F)F)cn3)c2)(C(F)F)COC1 (stereo not shown) [Example 110] | 3.55 |
| NC1=N[C@@](c2cc(NC(=O)c3ncc(Cl)cc3Cl)ccc2F)(C(F)F)COC1 [Example 111] | 0.007 |
| N#Cc1ccc(C(=O)Nc2ccc(F)c([C@]3(C(F)F)COCC(N)=N3)c2)nc1 [Example 112, 5-Cyano-pyridine-2-carboxylic acid [3-((R)-5-amino-3-difluoromethyl-3,6-dihydro-2H-[1,4]oxazin-3-yl)-4-fluoro-phenyl]-amide hydrochloride] | 0.097 |
| NC1=N[C@@](c2cc(NC(=O)c3ncc(F)cc3F)ccc2F)(C(F)F)COC1 [Example 113] | 0.029 |
| Cc1c(C(=O)Nc2ccc(F)c([C@]3(C(F)F)COCC(N)=N3)c2)oc2ccc(Br)cc12 [Example 114] | 0.116 |
| Cl.[2H]c1nc(C(=O)Nc2ccc(F)c([C@]3(C(F)F)COCC(N)=N3)c2)c(C([2H])([2H])[2H])c([2H])c1Cl [Example 115] | 0.003 |
| Cl.[2H]c1nc(C(=O)Nc2ccc(F)c([C@]3(C(F)F)COCC(N)=N3)c2)c(C([2H])([2H])[2H])c([2H])c1Br [Example 116] | 0.009 |
| NC1=N[C@@](c2cc(NC(=O)c3ncc(Br)cc3Cl)ccc2F)(C(F)F)COC1 [Example 117] | 0.013 |
| NC1=N[C@@](c2cc(NC(=O)c3ccc(Br)cn3)ccc2F)(C(F)F)COC1 [Example 118] | 0.011 |
| NC1=N[C@@](c2cc(NC(=O)c3ncc(Br)cc3O)ccc2F)(C(F)F)COC1 [Example 119] | 0.014 |

| Compound | IC50 [µM] |
| --- | --- |
| CCOc1ccc(C(=O)Nc2ccc(F)c([C@]3(C(F)F)COCC(N)=N3)c2)nc1 [Example 120] | 1.06 |
| NC1=N[C@@](c2cc(NC(=O)c3cnc(C(F)F)cn3)ccc2F)(C(F)F)COC1 [Example 122] | 0.514 |
| NC1=N[C@@](c2cc(NC(=O)c3cnc(OCC(F)F)cn3)ccc2F)(C(F)F)COC1 [Example 123] | 1.83 |
| NC1=N[C@@](c2cc(NC(=O)c3cnc(OCC(F)(F)F)cn3)ccc2F)(C(F)F)COC1 [Example 124] | 1.63 |
| NC1=N[C@@](c2cc(NC(=O)c3cc(Br)co3)ccc2F)(C(F)F)COC1 [Example 125] | 0.102 |
| NC1=N[C@@](c2cc(NC(=O)c3cc4ccccn4n3)ccc2F)(C(F)F)COC1 [Example 126] | 0.55 |
| Cc1nc(C(=O)Nc2ccc(F)c([C@]3(C(F)F)COCC(N)=N3)c2)co1 [Example 127] | 0.035 |
| Cc1nc(C(=O)Nc2ccc(F)c([C@]3(C(F)F)COCC(N)=N3)c2)c(C)o1 [Example 128] | 0.095 |
| NC1=N[C@@](c2cc(NC(=O)c3cn4ccccc4n3)ccc2F)(C(F)F)COC1 [Example 129] | 1.63 |
| COc1cc(Br)cnc1C(=O)Nc1ccc(F)c([C@]2(C(F)F)COCC(N)=N2)c1 [Example 130] | 0.042 |
| CCc1nc(C(=O)Nc2ccc(F)c([C@]3(C(F)F)COCC(N)=N3)c2)co1 [Example 131] | 0.067 |
| NC1=N[C@@](c2cc(NC(=O)c3ccc(C(F)F)cn3)ccc2F)(C(F)F)COC1 [Example 132] | 0.18 |
| Cn1ccnc1C(=O)Nc1ccc(F)c([C@]2(C(F)F)COCC(N)=N2)c1 [Example 133] | 0.573 |
| NC1=N[C@@](c2cc(NC(=O)c3ccc(O)nn3)ccc2F)(C(F)F)COC1 [Example 134] | 0.844 |
| COCCOc1cnc(C(=O)Nc2ccc(F)c([C@]3(C(F)F)COCC(N)=N3)c2)cn1 [Example 135] | 1.09 |
| NC1=N[C@@](c2cc(NC(=O)c3cnc(OCCF)cn3)ccc2F)(C(F)F)COC1 [Example 136] | 1.14 |
| NC1=N[C@@](c2cc(NC(=O)c3ccc(Cl)cn3)ccc2F)(C(F)F)COC1 [Example 137] | 0.018 |
| NC1=N[C@@](c2cc(NC(=O)c3ccc(OC(F)F)cn3)ccc2F)(C(F)F)COC1 [Example 138] | 0.458 |
| NC1=N[C@@](c2cc(NC(=O)c3ccc(OCF)cn3)ccc2F)(C(F)F)COC1 [Example 139] | 0.106 |
| NC1=N[C@@](c2cc(NC(=O)c3ncc(Cl)cc3F)ccc2F)(C(F)F)COC1 [Example 140] | 0.015 |

| Compound | IC50 [µM] |
| --- | --- |
| NC1=N[C@@](c2cc(NC(=O)c3cnc(Cl)cn3)ccc2F)(C(F)F)COC1 [Example 141] | 0.043 |
| Cc1cc(C(=O)Nc2ccc(F)c([C@]3(C(F)F)COCC(N)=N3)c2)n[nH]1 [Example 142] | 0.522 |
| Cc1ccc(C(=O)Nc2ccc(F)c([C@]3(C(F)F)COCC(N)=N3)c2)nc1 [Example 143] | 0.066 |
| Cc1cc(C#N)cnc1C(=O)Nc1ccc(F)c([C@]2(C(F)F)COCC(N)=N2)c1 [Example 144] | 0.051 |
| NC1=N[C@@](c2cc(NC(=O)c3cnc(O)cn3)ccc2F)(C(F)F)COC1 [Example 145] | 0.697 |
| Cl.[2H]c1nc(C(=O)Nc2ccc(F)c([C@]3(C(F)F)COCC(N)=N3)c2)c(C([2H])([2H])[2H])c([2H])c1C#N [Example 147] | 0.165 |
| Cc1nc(C(=O)Nc2ccc(F)c([C@]3(C(F)F)COCC(N)=N3)c2)cs1 [Example 148] | 0.287 |
| Cc1cnc(C(=O)Nc2ccc(F)c([C@]3(C(F)F)COCC(N)=N3)c2)s1 [Example 149] | 0.476 |
| Cn1ccc(C(=O)Nc2ccc(F)c([C@]3(C(F)F)COCC(N)=N3)c2)n1 [Example 150] | 0.061 |
| Cn1cc([N+](=O)[O-])c(C(=O)Nc2ccc(F)c([C@]3(C(F)F)COCC(N)=N3)c2)n1 [Example 151] | 0.376 |
| C[C@@]1(c2cc(NC(=O)c3ncc(Cl)cc3N)ccc2F)CO[C@@](C)(C(F)(F)F)C(N)=N1 [Example 153, 3-Amino-5-chloro-pyridine-2-carboxylic acid [3-((3R,6R)-5-amino-3,6-dimethyl-6-trifluoromethyl-3,6-dihydro-2H-[1,4]oxazin-3-yl)-4-fluoro-phenyl]-amide hydrochloride] | 0.003 |
| CC1(c2cc(NC(=O)c3ncc(C(F)(F)F)cc3Cl)ccc2F)N=C(N)COCC1(F)F (stereo not shown) [Example 154, 3-Chloro-5-trifluoromethyl-pyridine-2-carboxylic acid [3-(3-amino-6,6-difluoro-5-methyl-2,5,6,7-tetrahydro-[1,4]oxazepin-5-yl)-4-fluoro-phenyl]-amide] | 0.408 |
| COc1cc(Br)cnc1C(=O)Nc1ccc(F)c(C2(C)N=C(N)COCC2(F)F)c1 (stereo not shown) [Example 155, 5-Bromo-3-methoxy-pyridine-2-carboxylic acid [3-(3-amino-6,6 difluoro-5-methyl-2,5,6,7 tetrahydro-[1,4]oxazepin-5-yl)-4 fluoro-phenyl]-amide] | 0.043 |
| CC1(c2cc(NC(=O)c3ccc(C#N)cn3)ccc2F)N=C(N)COCC1(F)F (stereo not shown) [Example 156, 5-Cyano-pyridine-2-carboxylic acid [3-(3-amino-6,6-difluoro-5 methyl-2,5,6,7-tetrahydro[1,4]oxazepin-5-yl)-4 fluoro-phenyl]-amide] | 0.09 |
| NC1=N[C@@](c2cc(NC(=O)c3cc4cncnc4[nH]3)ccc2F)(C(F)F)COC1 [Example 157, 7H-Pyrrolo[2,3-d]pyrimidine-6-carboxylic acid [3-((R)-5-amino-3-difluoromethyl-3,6-dihydro-2H-[1,4]oxazin-3-yl)-4-fluoro-phenyl]-amide hydrochloride] | > 10 |
| COCCOc1cnc(C(=O)Nc2ccc(F)c([C@]3(C(F)F)COCC(N)=N3)c2)c(N)n1 [Example 158, 3-Amino-5-(2-methoxy-ethoxy)-pyrazine-2-carboxylic acid [3-((R)-5-amino-3-difluoromethyl-3,6-dihydro-2H-[1,4]oxazin-3-yl)-4-fluoro-phenyl]-amide] | 3.38 |
| CCc1ccc(C(=O)Nc2ccc(F)c([C@]3(C(F)F)COCC(N)=N3)c2)nc1 [Example 159, hydrochloride] | 0.119 |
| NC1=N[C@@](c2cc(NC(=O)c3ncc(Cl)cc3N)ccc2F)(C(F)F)COC1 [Example 160, 3-Amino-5-chloro-pyridine-2-carboxylic acid [3-((R)-5-amino-3-difluoromethyl-3,6-dihydro-2H-[1,4]oxazin-3-yl)-4-fluoro-phenyl]-amide hydrochloride] | 0.008 |
